Laboratory results published in patent publication US9206212B2, “Actinomycete strain composition and its use” (CENTRE NATIONAL DE LA RECHERCHE SCIENTIFIQUE, priority 2011, dated 2015).
Where a SMILES comes first, the peptide text is derived from it. Bridges are numbered along the chain shown (N, C = ends). [ ]: non-standard residue; d: D form. The star is where a group is joined. Ileψ(thiazoline)Cys = CC[C@H](C)[C@H](N)C1=N[C@H](C(=O)*)CS1; dOrn = NCCC[C@@H](N)C(=O)O

Experiments:
Streptomyces sp. BG76 = assay: Antibiotic sensibility of the strain; type: cell-based; set-up: key to Antibiotic sensibility: S: sensitive; R: resistant; conditions: for Antibiotic sensibility: amount given with each antibiotic (30 μg, 300 U, 10 μg, 10 U, 250 μg)
[1] = Mineral phosphate solubilization test
[2] = tested on: Bacillus subtilis ATCC 9524 (BS); assay: Antimicrobial bioassay, paper filter disk technique (agar diffusion); type: cell-based
Description: (§1) The retention time of the main peaks D1 and D2 were 15.62 and 17.99 min, respectively. These fractions were checked again for both activities with mineral phosphate solubilization test and anti microbial bioassay, against ML, BS, PU and MR using the paper filter disk technique.
(§2) The purified Viridomycin (compound 1) was checked for anti microbial bioassay, against Micrococcus luteus ATCC 381 (ML), Bacillus subtilis ATCC 9524 (BS) and the phytopathogenic fungi Pythium ultimum (PU) and Mucor ramannianus NRRL 1829 (MR) using the paper filter disk technique.

[3] = tested on: Micrococcus luteus ATCC 381 (ML); assay: as above; type: cell-based
Description: as §1, §2

[4] = tested on: Mucor ramannianus NRRL 1829 (MR); assay: as above; type: cell-based
Description: as §1, §2

Pythium ultimum (PU) = assay: as above; type: cell-based
Description: as §1, §2

[5] = Mineral phosphate solubilization test; remark: listed apart in the source
[6] = Solubility of the antibiotic; type: physicochemical; conditions: methanol and water
[7] = HPLC peak of fraction D, FIG. 4
[8] = purified Compound 1 at final concentration 98.5 mg·mL^−1
[9] = filter disc i.d. 6 mm, c = 20 μg/mL, 20 μL/disc

Molecule: CC(=O)OCC1=C(C(=O)O)N2C(=O)[C@@H](NC(=O)Cc3cccs3)[C@H]2SC1 [Cefalotin]
- Sensitivity of the strain to the antibiotic (in words) (Streptomyces sp. BG76): sensitive
- Antibiotic sensibility (Streptomyces sp. BG76): S

Molecule: Polymyxin B
- Sensitivity of the strain to the antibiotic (in words) (Streptomyces sp. BG76): sensitive
- Antibiotic sensibility (Streptomyces sp. BG76): S

Molecule: CC[C@H](C)[C@H](N)C1=N[C@H](C(=O)N[C@@H](CC(C)C)C(=O)N[C@H](CCC(=O)O)C(=O)N[C@H](C(=O)N[C@H]2CCCCNC(=O)[C@H](CC(N)=O)NC(=O)[C@@H](CC(=O)O)NC(=O)[C@H](Cc3cnc[nH]3)NC(=O)[C@@H](Cc3ccccc3)NC(=O)[C@H]([C@@H](C)CC)NC(=O)[C@@H](CCCN)NC2=O)[C@@H](C)CC)CS1 [Bacitracine] ({Ileψ(thiazoline)Cys}-L[dE]IK[dOrn]I[dF]H[dD]N; lactam 4-C)
- Sensitivity of the strain to the antibiotic (in words) (Streptomyces sp. BG76): sensitive
- Antibiotic sensibility (Streptomyces sp. BG76): S

Molecule: Gentamycine
- Sensitivity of the strain to the antibiotic (in words) (Streptomyces sp. BG76): sensitive
- Antibiotic sensibility (Streptomyces sp. BG76): S

Molecule: CO[C@@H]1[C@@H](OC(N)=O)[C@@H](O)[C@H](Oc2ccc3c(O)c(NC(=O)c4ccc(O)c(CC=C(C)C)c4)c(=O)oc3c2C)OC1(C)C [Novobiocine]
- Sensitivity of the strain to the antibiotic (in words) (Streptomyces sp. BG76): sensitive
- Antibiotic sensibility (Streptomyces sp. BG76): S

Molecule: NS(N)(=O)=O [Sulfamides]
- Sensitivity of the strain to the antibiotic (in words) (Streptomyces sp. BG76): resistant
- Antibiotic sensibility (Streptomyces sp. BG76): R

Molecule: Tris (3-imino-4-oxo-cyclohexa-1,5-diene-carbaldehydro) iron (III) [Compound 1]
- Mineral phosphate solubilization activity (in words) [1, 7]: mineral phosphate solubilization activities
- Concentration of solubilized Phosphate from TC [1, 8]: 135.2 µg/mL
- Diameter of microbial growth inhibition zone [2, 9]: 29 mm
- Antimicrobial activity (in words) ([2]; on the standard media): inhibited
- Diameter of microbial growth inhibition zone [3, 9]: 45 mm
- Antimicrobial activity (in words) ([3]; on the standard media): inhibited
- Diameter of microbial growth inhibition zone [4, 9]: 38 mm
- Antimicrobial activity (in words) ([4]; on the standard media): inhibited
- Diameter of microbial growth inhibition zone (Pythium ultimum (PU); [9]): 27 mm
- Antimicrobial activity (in words) (Pythium ultimum (PU); on the standard media): inhibited
- Mineral phosphate solubilization activity (in words) [5, 7]: mineral phosphate solubilization activities
- Concentration of solubilized Phosphate from RP [5, 8]: 63.7 µg/mL
- Solubility [6]: soluble in methanol and water
